Source: patent US4493838A, “Medicaments containing derivatives of 3-chloro-quinoline” (Pharmindustrie, priority 1980, dated 1985)

Assays:
[1] = target: cerebral receptor sites of the benzodiazepines; details: 3H-Diazepam; constant used in the formula for Ki; read-out: KD (constant of affinity); cited from earlier work
[2] = target: cerebral receptor sites of the benzodiazepines; assay: Affinity for the cerebral receptor sites of the benzodiazepines (displacement of 3H-Diazepam, method of Mohler et al.); details: displacement of 3H-Diazepam from its binding site; Ki calculated from IC50, C and KD
Description: The products have been tested according to the method of Mohler et al., Life Science, 1977, 20, 2101, which is relied on herein.

CN1C(=O)CN=C(c2ccccc2)c2cc(Cl)ccc21 [3H Diazepam]
Kd [1]: 2.74 µM

Clc1cnc2ccccc2c1CCC1CCNCC1 [Example 1, 3-Chloro-4-[2-(4-piperidyl)-ethyl]-quinoline]
Ki [2]: 2 µM

COc1ccc2ncc(Cl)c(CCC3CCNCC3)c2c1 [Example 3, 3-Chloro-6-methoxy-4-[2-(4-piperidyl)-ethyl]-quinoline]
Ki [2]: 12 µM

Cc1nc2ccccc2c(CCC2CCNCC2)c1Cl [Example 4, 2-Methyl-3-chloro-4-[2-(4-piperidyl)-ethyl]-quinoline]
Ki [2]: 1 µM

Clc1c(-c2ccccc2)nc2ccccc2c1CCC1CCNCC1 [Example 5, 2-Phenyl-3-chloro-4-[2-(4-piperidyl)-ethyl]-quinoline]
Ki [2]: 0.5 µM

Clc1cnc2ccccc2c1CC1CCNCC1 [Example 6, 3-Chloro-4-[(4-piperidyl)-methyl]-quinoline]
Ki [2]: 5 µM

Cc1cccc2c(CC3CCNCC3)c(Cl)cnc12 [Example 8, 3-Chloro-8-methyl-4-[(4-piperidyl)-methyl]-quinoline]
Ki [2]: 10 µM

Clc1cc2ccccc2nc1CCC1CCNCC1 [Example 9, 3-Chloro-2-[2-(4-piperidyl)-ethyl]-quinoline]
Ki [2]: 5 µM
